Laboratory results reported in ChEMBL document CHEMBL1141980, “Novel use of chemical shift in NMR as molecular descriptor: a first report on modeling carbonic anhydrase inhibitory activity and related parameters” (Bioorg Med Chem Lett, 2005).

Experiment: Diuretic activity was determined
Type: ADME, tissue-based, Urine
Design: reference not given here

pC	Structure (SMILES)
0.398	CC(=O)c1ccc(S(N)(=O)=O)cc1
0.176	Cc1cccc(S(N)(=O)=O)c1
-0.036	CNc1ccc(S(N)(=O)=O)cc1
0.188	COc1ccc(S(N)(=O)=O)cc1
0.301	Cc1ccccc1S(N)(=O)=O
1	N#Cc1ccc(S(N)(=O)=O)cc1
0.267	NS(=O)(=O)c1ccc(Br)cc1
0.58	NS(=O)(=O)c1ccc([N+](=O)[O-])c(C(F)(F)F)c1
0.824	NS(=O)(=O)c1ccc([N+](=O)[O-])cc1
0.301	NS(=O)(=O)c1ccccc1[N+](=O)[O-]
0.243	NS(=O)(=O)c1ccc(Cl)c(Cl)c1
0.678	NS(=O)(=O)c1cccc([N+](=O)[O-])c1
0.301	NS(=O)(=O)c1ccccc1Cl
0.292	NS(=O)(=O)c1cccc(Cl)c1
0.322	NS(=O)(=O)c1ccc(Cl)c([N+](=O)[O-])c1
0.13	NS(=O)(=O)c1ccccc1 [BENZENESULFONAMIDE]
0.286	NS(=O)(=O)c1ccc(Cl)cc1 [P-CHLOROBENZENESULFONAMIDE]
0.182	Cc1ccc(S(N)(=O)=O)cc1 [P-TOLUENESULFONAMIDE]
-0.301	Nc1ccc(S(N)(=O)=O)cc1 [SULFANILAMIDE]
